Data taken from patent US11878009B2, “Anticancer combination of chidamide and celecoxib salts” (Great Novel Therapeutics Biotech & Medicals Corporation, priority 2019, dated 2024).

What was measured:
[1] = Saturation solubility in ddH2O; type: physicochemical; details: for Saturation & Solubility: ddH2O, 25° C., 100 rpm, 90 minutes, triplicates, mean ± SD; for water solubility (in words): saturation solubility study
Description: Determination of Saturation Solubility of Chidamide-HCl, Chidamide-H2SO4, and Celecoxib-Na Salts. Sample of 5 mg of chidamide-HCl, chidamide-H2SO4, or celecoxib-Na salts was added to 5 ml volumetric flasks containing ddH2O and shook at 100 rpm in an incubator at 25° C. for 90 minutes. The resulting suspension was filtered through a 0.22 μm filter. The concentrations of chidamide-HCl, chidamide-H2SO4, and celecoxib-Na salts were determined spectrophotometrically at 256 nm, 256 nm, and 253 nm, respectively. The saturation solubility of each sample was determined in triplicates and the mean value and standard deviation were reported. Preparation of standard curves is described as below.

[2] = low solubility and high permeability; cited from earlier work

| SMILES | Saturation & Solubility [1] | water solubility (in words) [1] | BCS class [2] |
| --- | --- | --- | --- |
| Nc1cc(F)ccc1NC(=O)c1ccc(CNC(=O)/C=C/c2cccnc2)cc1 [Chidamide-API, 4-(((E)-3-(pyridin-3-yl)acrylamido)methyl)-N-(2-amino-4-fluorophenyl)benzamide, reference compound] | BDL | water-insoluble | – |
| Cc1ccc(-c2cc(C(F)(F)F)nn2-c2ccc(S(N)(=O)=O)cc2)cc1 [Celecoxib-API, 4-[5-(4-Methylphenyl)-3-(trifluoromethyl)pyrazol-1-yl]benzenesulfonamide, reference compound] | BDL | water-insoluble | class II |
